Experimental data from BindingDB's records for doi:10.1002/cbic.200800304 (Research Institute, Hospital For Sick Children, 2008).
pIC50: −log10 of the molar value.

The molecules below were run against T1, Lysosomal acid glucosylceramidase (Homo sapiens, UniProt P04062) (assay: Inhibiton Assay). Conditions: pH 5.5; 37 °C.
T1 sequence (P04062 whole entry): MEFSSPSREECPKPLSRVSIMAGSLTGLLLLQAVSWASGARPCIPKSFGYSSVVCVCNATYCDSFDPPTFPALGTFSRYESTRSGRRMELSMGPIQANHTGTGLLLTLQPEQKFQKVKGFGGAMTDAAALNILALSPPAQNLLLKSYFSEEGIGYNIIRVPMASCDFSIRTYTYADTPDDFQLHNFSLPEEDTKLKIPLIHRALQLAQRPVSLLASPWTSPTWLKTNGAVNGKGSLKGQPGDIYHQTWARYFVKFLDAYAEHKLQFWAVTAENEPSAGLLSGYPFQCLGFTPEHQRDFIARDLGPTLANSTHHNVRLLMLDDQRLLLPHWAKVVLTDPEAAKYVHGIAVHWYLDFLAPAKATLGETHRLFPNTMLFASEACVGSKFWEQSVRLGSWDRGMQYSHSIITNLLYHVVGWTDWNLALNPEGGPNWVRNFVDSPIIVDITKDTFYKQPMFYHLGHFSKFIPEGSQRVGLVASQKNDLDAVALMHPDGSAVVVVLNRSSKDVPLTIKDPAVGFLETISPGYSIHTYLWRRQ
Protocol: Beta-glucocerebrosidase (GCase) activity was measured by release of 4-methylumbelliferyl fluorophore from MUClc.

Compound	pIC50
Cc1ccc(Sc2cccc3nc(N)nc(N)c23)cc1	5.11
CC(C)(C)C(=O)Nc1ccncc1 [2,2-dimethyl-N-(4-pyridinyl)propanamide, 2b]	< 3.40
Nc1nc(N)c2cc([N+](=O)[O-])ccc2n1 [2,4-diamino-6-nitro-quinazoline, 1a]	4.21
O=C(Nc1ccncc1)c1ccc(Oc2cc(Cl)cc(Cl)c2)o1 [5-(3,5-dichlorophenoxy)-N-(4-pyrdinyl)-2-furamide, 2]	5.33
CCOc1ccc2c(N)nc(N)nc2c1OCC [7,8-diethoxy-quinazoline 2,4-diamine, 1b]	4.66
